Source: ChEMBL document CHEMBL3352665, “Trends in research of antitrypanosomal agents among synthetic heterocycles” (Eur J Med Chem, 2014)

What was measured:
[1] = Inhibition of Trypanosoma brucei PTR1; settings: read-out: Ki(app)
Cruzipain = Cruzipain (Trypanosoma cruzi, UniProt P25779); experiment: Inhibition of Trypanosoma cruzi cruzain
Trypanosoma cruzi [2] = experiment: Antitrypanosomal activity against Trypanosoma cruzi assessed as growth inhibition; format: functional; settings: read-out: ED50 (the source's name)
[3] = Selectivity ratio for human triosephosphate isomerase to Trypanosoma cruzi triosephosphate isomerase
Trypanosoma brucei [4] = experiment: Antitrypanosomal activity against bloodstream forms of Trypanosoma brucei assessed as growth inhibition; format: functional, organism-based
[5] = biological target: Triosephosphate isomerase, glycosomal (Trypanosoma cruzi) (UniProt P52270); experiment: Inhibition of Trypanosoma cruzi triosephosphate isomerase at 50 uM
Sequence of Triosephosphate isomerase, glycosomal (Trypanosoma cruzi) (P52270 whole entry): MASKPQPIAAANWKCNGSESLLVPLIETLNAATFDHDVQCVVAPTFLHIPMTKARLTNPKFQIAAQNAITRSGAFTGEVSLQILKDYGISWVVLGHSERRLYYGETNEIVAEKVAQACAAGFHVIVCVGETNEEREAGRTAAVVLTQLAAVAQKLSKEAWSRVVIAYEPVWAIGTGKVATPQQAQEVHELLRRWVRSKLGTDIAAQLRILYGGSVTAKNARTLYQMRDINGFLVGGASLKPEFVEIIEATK

Trypanosoma brucei [6] = experiment: Inhibition of Trypanosoma brucei triosephosphate isomerase at 50 uM
[7] = system: Trypanosoma brucei rhodesiense; experiment: Antitrypanosomal activity against Trypanosoma brucei rhodesiense assessed as growth inhibition; format: functional; settings: read-out: ED50 (the source's name)
Trypanosoma cruzi [8] = experiment: Antitrypanosomal activity against epimastigote forms of Trypanosoma cruzi Y assessed as growth inhibition; format: functional, organism-based
Trypanosoma brucei [9] = experiment: Antitrypanosomal activity against Trypanosoma brucei assessed as growth inhibition; format: functional, organism-based

Sequence of Cruzipain (P25779 whole entry): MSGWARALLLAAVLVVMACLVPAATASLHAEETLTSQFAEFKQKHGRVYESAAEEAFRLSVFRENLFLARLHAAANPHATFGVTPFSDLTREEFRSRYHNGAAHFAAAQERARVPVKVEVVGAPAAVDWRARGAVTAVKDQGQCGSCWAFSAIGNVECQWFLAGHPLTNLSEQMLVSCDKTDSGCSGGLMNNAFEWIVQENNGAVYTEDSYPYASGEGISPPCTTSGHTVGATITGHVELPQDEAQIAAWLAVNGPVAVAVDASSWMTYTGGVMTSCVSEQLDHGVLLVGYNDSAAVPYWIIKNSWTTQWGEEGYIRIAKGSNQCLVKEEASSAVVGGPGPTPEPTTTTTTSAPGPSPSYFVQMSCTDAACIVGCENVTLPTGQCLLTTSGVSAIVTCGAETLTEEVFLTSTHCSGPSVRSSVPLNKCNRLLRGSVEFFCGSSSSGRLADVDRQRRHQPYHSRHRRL

Nc1nc2cccc(-c3ccccc3)c2n1Cc1ccc(Cl)c(Cl)c1
Ki [1]: 7 nM

Cc1ccc(SCC/C=N/NC2=NC(=O)C(C)S2)cc1 (configuration not stated)
IC50 (Cruzipain): 20400 nM

CCCC/C(=N\NC(N)=S)c1ccccc1
EC50 (Trypanosoma cruzi [2]): 3000 nM

Cc1ccc2nc(-c3ccc(N)cc3)sc2c1
Selectivity ratio [3]: 200

CCCOc1cccc2nc(N)n(Cc3ccc(Cl)c(Cl)c3)c12
EC50 (Trypanosoma brucei [4]): 10000 nM | Ki [1]: 47 nM

Nc1ccc(-c2nc3ccc(-c4ccc5nc(N)sc5c4)cc3s2)cc1
inhibition [5]: > 90% | inhibition (Trypanosoma brucei [6]): > 90%

NC(=S)N/N=C(\C=C\c1ccccc1)c1ccccc1
EC50 [7]: 70 nM

CCC1SC(N/N=C/CCSc2ccccc2)=NC1=O (configuration not stated)
IC50 (Trypanosoma cruzi [8]): 300 nM

COc1ccccc1C(=O)c1cnc(NC2CCN(C(=O)Nc3ccccc3)CC2)nc1N
IC50 (Trypanosoma brucei [9]): 70 nM

CC1SC(N/N=C/CCCSc2ccccc2)=NC1=O (configuration not stated)
IC50 (Cruzipain): 400 nM
